Patent US6407075B1, “Fatty acid treatment” (priority 1996, dated 2002)

What was measured:
[1] = system: toxic side effects of chemotherapy; test: Clinical observations in cancer patients receiving conventional chemotherapy plus fatty acids; assay type: in vivo, human patients; details: patients receiving conventional chemotherapy and the fatty acid at the same time
From the text: In many instances, the fatty acids have been given to patients who at that same time were receiving conventional chemotherapy for their cancer.

[2] = system: streptozotocin damage to the islet cells of the pancreas; test: Streptozotocin-induced diabetes in rats; assay type: in vivo; details: fatty acid administered prior to streptozotocin
From the text: In a third animal study, the anti-cancer streptozotocin was used. A major effect of this compound is to damage the islet cells of the pancreas and consequently to lead to insulin dependent diabetes.

[3] = system: lung toxicity of bleomycin; test: Lung toxicity (fibrosis) of intratracheal bleomycin in animals; assay type: in vivo; details: bleomycin into the trachea, about 5-10 IU per kg body weight, 2-4 weeks
Description: We have recently supported the clinical observations by animal studies on the cardiotoxicity of doxorubicin and the lung toxicity of bleomycin. When 20 mg of doxorubicin (DOX) is given intraperitoneally to mice, the animals usually die within two weeks because of cardiac damage. When animals were pre-treated with LA or with GLA or with EPA or with DHA in various doses and chemical forms, the death rate to the same dose of doxorubicin was reduced to between 20% and 60% depending on the dose and the precise chemical administered. […] Similarly, bleomycin introduced into the trachea of animals under anaesthesia at a dose of about 5-10 IU per kg body weight, within 2-4 weeks the animals develop severe lung fibrosis which is very similar to the fibrosis which occurs in human patients treated with bleomycin. […] In a third animal study, the anti-cancer streptozotocin was used. A major effect of this compound is to damage the islet cells of the pancreas and consequently to lead to insulin dependent diabetes.

[4] = system: cardiotoxicity of doxorubicin; test: Cardiotoxicity of doxorubicin in mice pre-treated with fatty acids; assay type: in vivo; details: 20 mg doxorubicin intraperitoneally, fatty acid pre-treatment
[5] = system: side effects of chemotherapy; test: Case histories of patients given fatty acid derivatives with chemotherapy; assay type: in vivo, human patients
From the text: The following histories illustrate use of the invention
This chemotherapy regime normally causes severe vomiting and nausea, marked malaise and anorexia.
C. […] The chemotherapy regime normally causes nausea, vomiting, mucositis and white cell suppression.
This normally causes nausea, vomiting, white cell suppression and mucositis.

[6] = case C, breast cancer, 'CMF' regime, 30 g cumulative intravenously, then 2 g/day oral
[7] = case D, metastatic colon cancer, 5-fluorouracil, 3 g/day from two weeks before and during chemotherapy

Compound: CC/C=C\C/C=C\C/C=C\C/C=C\C/C=C\C/C=C\CCC(=O)O [DHA, docosahexaenoic acid]
- toxic side effects of chemotherapy [1]: substantially reduced

Compound: CC/C=C\C/C=C\C/C=C\C/C=C\C/C=C\CCCC(=O)O [EPA, eicosapentaenoic acid]
- toxic side effects of chemotherapy [1]: substantially reduced

Compound: CCCCC/C=C\C/C=C\C/C=C\CCCCC(=O)O [GLA, gamma-linolenic acid]
- likelihood of the development of diabetes [2]: greatly reduced
- lung pathological changes and increased production of fibrous tissue [3]: almost entirely suppress
- toxic side effects of chemotherapy [1]: substantially reduced
- reduction in cardiac weight characteristic of doxorubicin toxicity [4]: considerably attenuated

Compound: CCCCC/C=C\C/C=C\CCCCCCCC(=O)O [LA, linoleic acid]
- likelihood of the development of diabetes [2]: greatly reduced
- lung pathological changes and increased production of fibrous tissue [3]: almost entirely suppress
- toxic side effects of chemotherapy [1]: substantially reduced
- reduction in cardiac weight characteristic of doxorubicin toxicity [4]: considerably attenuated

Compound: CCCCC/C=C\C/C=C\C/C=C\CCCCC(=O)[O-].[Li+] [lithium salt of gammalinolenic acid]
- general well-being ([5]; case B, Hodgkin's disease, 'MOPP' regime, 3 g per day orally): remained well and able to continue working
- nausea ([5]; case B, Hodgkin's disease, 'MOPP' regime, 3 g per day orally from one week before and throughout chemotherapy): only mild nausea
- nausea [5, 6]: only mild nausea
- suppression of the white cell count [5, 6]: less than expected
- vomiting or mucositis [5, 6]: no vomiting or mucositis

Compound: CC/C=C\C/C=C\C/C=C\C/C=C\C/C=C\CCCC(=O)OCC(COC(=O)CCC/C=C\C/C=C\C/C=C\C/C=C\C/C=C\CC)OC(=O)CCC/C=C\C/C=C\C/C=C\C/C=C\C/C=C\CC [triglyceride of eicosapentaenoic acid]
- nausea and white cell suppression [5, 7]: less than expected
- vomiting or mucositis [5, 7]: no vomiting or mucositis

Compound: dilinoleoyl-monogammalinolenoyl-glycerol [DLMG]
- general well-being ([5]; case A, glioblastoma patient, carmustine): felt well throughout
- nausea ([5]; case A, glioblastoma patient, carmustine, given prior to and during the course): only very mild nausea
